In ChEMBL document CHEMBL1201862, “PubChem BioAssay data set” (2004):
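Grown in 96-well plates, cells were treated for 48 hours with each compound at five concentrations. Insufficient inhibition: endpoint recorded as highest concentration tested. GI50 = concentration required for 50% inhibition of growth.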 Activity calls are given as the source filed them. Rule as the data show it: active = GI50 up to about 1.1 µM and inactive = higher.

Legend:
Test in all cases: growth of human tumour cells (NCI), 48 h
NCI-H226 = system: NCI-H226
HOP-62 = system: HOP-62
SF-268 = system: SF-268
M14 = system: M14
OVCAR-4 = system: OVCAR-4
UO-31 = system: UO-31
SNB-78 = system: SNB-78
SNB-19 = system: SNB-19
NCI-H460 = system: NCI-H460
DMS-114 = system: DMS-114
SF-295 = system: SF-295
RXF 393 = system: RXF 393
LOX IMVI = system: LOX IMVI
DLD-1 = system: DLD-1
OVCAR-5 = system: OVCAR-5
SN12C = system: SN12C
COLO 205 = system: COLO 205
DMS-273 = system: DMS-273
KM12 = system: KM12
SF-539 = system: SF-539
NCI-H522 = system: NCI-H522
UACC-257 = system: UACC-257
HL-60 = system: HL-60
HOP-18 = system: HOP-18
M19-MEL = system: M19-MEL
Malme-3M = system: Malme-3M
SW-620 = system: SW-620
LXFL 529 = system: LXFL 529
TK-10 = system: TK-10
786-0 = system: 786-0
A549 = system: A549
SNB-75 = system: SNB-75
HCT-116 = system: HCT-116
HT-29 = system: HT-29
OVCAR-3 = system: OVCAR-3
OVCAR-8 = system: OVCAR-8
U-251 = system: U-251
XF498 = system: XF498
ACHN = system: ACHN
HOP-92 = system: HOP-92
HCC 2998 = system: HCC 2998
SK-MEL-28 = system: SK-MEL-28
KM-20L2 = system: KM-20L2
CAKI-1 = system: CAKI-1
EKVX = system: EKVX
NCI-H23 = system: NCI-H23
SK-MEL-2 = system: SK-MEL-2
UACC-62 = system: UACC-62
RXF 631 = system: RXF 631
MOLT-4 = system: MOLT-4
IGROV-1 = system: IGROV-1
SK-OV-3 = system: SK-OV-3
RPMI-8226 = system: RPMI-8226
CCRF-CEM = system: CCRF-CEM
A498 = system: A498
SK-MEL-5 = system: SK-MEL-5
SR = system: SR
K562 = system: K562
HCT-15 = system: HCT-15

Q: With `O=C(O)c1oc2ccc([N+](=O)[O-])c3c2c1CCC3` as the compound, how does the GI50 (NCI-H226) read?
A: The GI50 was > 100 µM (inactive).

Q: And the GI50 (HOP-62)?
A: The GI50 was > 100 µM (inactive).

Q: And the GI50 (SF-268)?
A: Its GI50 is 74.3 µM (inactive).

Q: And the GI50 (M14)?
A: Its GI50 is > 100 µM (inactive).

Q: And the GI50 (OVCAR-4)?
A: Its GI50 is > 100 µM (inactive).

Q: What about the GI50 (UO-31) of the same compound?
A: The GI50 was > 100 µM (inactive).

Q: And the GI50 (SNB-78)?
A: The GI50 was > 100 µM (inactive).

Q: What about the GI50 (SNB-19) of the same compound?
A: Its GI50 is > 100 µM (inactive).

Q: And the GI50 (NCI-H460)?
A: The GI50 was > 100 µM (inactive).

Q: What about the GI50 (DMS-114) of the same compound?
A: The GI50 was > 100 µM (inactive).

Q: What about the GI50 (SF-295) of the same compound?
A: The GI50 was > 100 µM (inactive).

Q: What about the GI50 (RXF 393) of the same compound?
A: Its GI50 is > 100 µM (inactive).

Q: And the GI50 (LOX IMVI)?
A: Its GI50 is > 100 µM (inactive).

Q: And the GI50 (DLD-1)?
A: The GI50 was > 100 µM (inactive).

Q: And the GI50 (OVCAR-5)?
A: Its GI50 is > 100 µM (inactive).

Q: And the GI50 (SN12C)?
A: Its GI50 is > 100 µM (inactive).

Q: And the GI50 (COLO 205)?
A: The GI50 was > 100 µM (inactive).

Q: And the GI50 (DMS-273)?
A: Its GI50 is > 100 µM (inactive).

Q: And the GI50 (KM12)?
A: Its GI50 is > 100 µM (inactive).

Q: And the GI50 (SF-539)?
A: Its GI50 is > 100 µM (inactive).

Q: What about the GI50 (NCI-H522) of the same compound?
A: Its GI50 is > 100 µM (inactive).

Q: And the GI50 (UACC-257)?
A: Its GI50 is > 100 µM (inactive).

Q: What about the GI50 (HL-60) of the same compound?
A: Its GI50 is > 100 µM (inactive).

Q: What about the GI50 (HOP-18) of the same compound?
A: The GI50 was > 100 µM (inactive).

Q: And the GI50 (M19-MEL)?
A: The GI50 was > 100 µM (inactive).

Q: And the GI50 (Malme-3M)?
A: Its GI50 is 54.1 µM (inactive).

Q: What about the GI50 (SW-620) of the same compound?
A: The GI50 was > 100 µM (inactive).

Q: And the GI50 (LXFL 529)?
A: The GI50 was > 100 µM (inactive).

Q: And the GI50 (TK-10)?
A: Its GI50 is > 100 µM (inactive).

Q: And the GI50 (786-0)?
A: Its GI50 is 98.9 µM (inactive).

Q: And the GI50 (A549)?
A: Its GI50 is > 100 µM (inactive).

Q: What about the GI50 (SNB-75) of the same compound?
A: Its GI50 is 67.6 µM (inactive).

Q: What about the GI50 (HCT-116) of the same compound?
A: The GI50 was > 100 µM (inactive).

Q: What about the GI50 (HT-29) of the same compound?
A: The GI50 was > 100 µM (inactive).

Q: What about the GI50 (OVCAR-3) of the same compound?
A: Its GI50 is > 100 µM (inactive).

Q: And the GI50 (OVCAR-8)?
A: Its GI50 is > 100 µM (inactive).

Q: What about the GI50 (U-251) of the same compound?
A: The GI50 was > 100 µM (inactive).

Q: And the GI50 (XF498)?
A: The GI50 was 24.4 µM (inactive).

Q: And the GI50 (ACHN)?
A: Its GI50 is > 100 µM (inactive).

Q: And the GI50 (HOP-92)?
A: The GI50 was 27.7 µM (inactive).

Q: What about the GI50 (HCC 2998) of the same compound?
A: Its GI50 is > 100 µM (inactive).

Q: What about the GI50 (SK-MEL-28) of the same compound?
A: The GI50 was > 100 µM (inactive).

Q: And the GI50 (KM-20L2)?
A: Its GI50 is > 100 µM (inactive).

Q: What about the GI50 (CAKI-1) of the same compound?
A: Its GI50 is > 100 µM (inactive).

Q: And the GI50 (EKVX)?
A: Its GI50 is > 100 µM (inactive).

Q: And the GI50 (NCI-H23)?
A: The GI50 was > 100 µM (inactive).

Q: What about the GI50 (SK-MEL-2) of the same compound?
A: Its GI50 is > 100 µM (inactive).

Q: What does the source list for `C#CC[C@]12CC(=O)CC[C@H]1CC1(C2)OCCO1`?
A: GI50 (NCI-H226): > 100 µM (inactive); GI50 (HOP-62): > 100 µM (inactive); GI50 (SF-268): > 100 µM (inactive); GI50 (UACC-62): > 100 µM (inactive); GI50 (M14): > 100 µM (inactive); GI50 (RXF 631): > 100 µM (inactive); GI50 (OVCAR-4): > 100 µM (inactive); GI50 (MOLT-4): > 100 µM (inactive); GI50 (UO-31): > 100 µM (inactive); GI50 (SNB-78): > 100 µM (inactive); GI50 (IGROV-1): > 100 µM (inactive); GI50 (SK-OV-3): > 100 µM (inactive); GI50 (SNB-19): > 100 µM (inactive); GI50 (NCI-H460): > 100 µM (inactive); GI50 (DMS-114): > 100 µM (inactive); GI50 (RXF 393): > 100 µM (inactive); GI50 (DLD-1): > 100 µM (inactive); GI50 (SN12C): > 100 µM (inactive); GI50 (COLO 205): > 100 µM (inactive); GI50 (DMS-273): > 100 µM (inactive); GI50 (KM12): > 100 µM (inactive); GI50 (SF-539): > 100 µM (inactive); GI50 (NCI-H522): > 100 µM (inactive); GI50 (RPMI-8226): > 100 µM (inactive); GI50 (UACC-257): > 100 µM (inactive); GI50 (HL-60): > 100 µM (inactive); GI50 (HOP-18): > 100 µM (inactive); GI50 (M19-MEL): > 100 µM (inactive); GI50 (Malme-3M): > 100 µM (inactive); GI50 (SW-620): > 100 µM (inactive); GI50 (LXFL 529): > 100 µM (inactive); GI50 (TK-10): > 100 µM (inactive); GI50 (786-0): > 100 µM (inactive); GI50 (A549): > 100 µM (inactive); GI50 (CCRF-CEM): > 100 µM (inactive); GI50 (SNB-75): > 100 µM (inactive); GI50 (A498): > 100 µM (inactive); GI50 (HCT-116): > 100 µM (inactive); GI50 (SK-MEL-5): > 100 µM (inactive); GI50 (OVCAR-3): > 100 µM (inactive); GI50 (SR): > 100 µM (inactive); GI50 (OVCAR-8): > 100 µM (inactive); GI50 (U-251): > 100 µM (inactive); GI50 (K562): > 100 µM (inactive); GI50 (ACHN): > 100 µM (inactive); GI50 (HCC 2998): > 100 µM (inactive); GI50 (SK-MEL-28): > 100 µM (inactive); GI50 (KM-20L2): > 100 µM (inactive); GI50 (CAKI-1): > 100 µM (inactive); GI50 (HCT-15): > 100 µM; GI50 (SK-MEL-2): > 100 µM (inactive)
